# Assay results reported in patent US4342762A, “Basic ethers and pharmaceutical compositions containing the same” (Egyt Gyogyszervegyeszeti Gyar, priority 1979, dated 1982).
# Experiments:
# white mice [1] = experiment: analgesic effect, inhibition of acetic acid "writhing" reactions (Wirth et al.); assay type: in vivo; conditions: for ED50: Mus musculus, read-out: Analgesic effect ED50; for Analgesic effect Therap.index: therapeutic index
# Procedure: (§1) The analgesic effect of the new compounds according to the invention was determined by the method of Wirth et al. (Wirth, W., Gosswald, R., Horlein. K., Risse, Kl. H., Kreiskott, H.: Arch. Int. Pharmacodyn. 115, 1; (1958)). 0.4 ml of 0.5% acetic acid was administered i.p. to white mice, and the characteristic "writhing" reactions were counted after 5 minutes. The compounds to be tested had been orally administered an hour before the administration of the acetic acid. The activity is expressed as a percentage of the inhibition referred to the data observed on the control group. The results are given in Table I. The toxicity data determined on white mice of both sexes weighing 18-24 g belonging to the strain CFLP are also given. Administration was effected with an oral dose of 20 ml/kg. After treatment the animals were kept under observation for 4 days. The toxicity data (LD50 mg/kg) were determined by the graphic method of Litchfield-Wilcoxon [Litchfield, J.T., Wilcoxon, E. W., J Pharmacol. Exp. Therap. 96, 99; (1949)].
# mice = experiment: potentiating of hexobarbital-narcosis (Kaergaard); assay type: in vivo; conditions: for ED50: Mus musculus, iv, 40 mg/kg hexobarbital i.v., positive: sleeping period at least 2.5 times control; for Potentiating of narcosis Th.I.: therapeutic index
# Procedure: (§2) The effect on the inhibition of the oriental activity (inhibition of the motility) was investigated on white mice in a Dews apparatus applied with 8 canals by the method of Borsy [Borsy, J., Csanyi, E., Lazar, I., Arc. Int. Pharmacodyn. 124, 1-2 (1960)]. After an oral pretreatment of 30 minutes the number of light-interruptions due to the movements of groups consisting of 3-3 mice was registered. The observation lasted for 30 minutes. The effect of the compounds exerted on the duration of hexobarbital-narcosis was tested by the method of Kaergaard [Kaergaard, N. C., Magnussen, M. P., Kampmann, E., Frey, H. H., Arc. Int. Pharmacodyn. 2, 170; (1967)]. Groups of animals consisting of 6-6 mice were treated.
# [2] = acute oral toxicity, graphic method of Litchfield-Wilcoxon, 4 days observation; conditions: mouse, in vivo
# Procedure: as §1, with “The compounds to be tested had been orally administered an hour before the administration of the acetic acid. The activity is expressed as a percentage of the inhibition referred to the data observed on the control group.” left out
# white mice [3] = experiment: inhibition of nicotine-lethality (Stone); assay type: in vivo; conditions: for ED50: Mus musculus, oral, 1 hour before 1.4 mg/kg nicotine
# Procedure: The inhibition of nicotine-lethality was determined on white mice by the method of Stone [Stone, C. A., Mecklenburg, K. L., Torchiana, M. L., Arch. Int. Pharmacodyn.
# white mice [4] = experiment: inhibition of motility, Dews apparatus (Borsy); assay type: in vivo; conditions: for ED50: Mus musculus, oral pretreatment 30 minutes, observation 30 minutes; for Inhibition of motility Th.I.: therapeutic index
# Procedure: as §2
# white mice [5] = experiment: inhibition of maximal electroshock (MES) (Swinyard et al.); assay type: in vivo; conditions: for ED50: Mus musculus, oral, 1 hour before electroshock 50 Hz, 45 mA, 0.4 sec, total inhibition of tonic extensor convulsion; for Inhibition of MES Th. I.: therapeutic index
# Procedure: (§3) The antiepileptic effect was investigated on white mice, after oral administration. The inhibition of maximal electroshock (MES) was determined by the method of Swinyard et al. [Swinyard et al. J. Pharmacol. Exp. Ther. 106, 319-330 (1952)]. White mice weighing 20-25 g were subjected to electric shock through corneal electrodes (Parameters: 50 Hz, 45 mA, 0.4 sec.). The total inhibition of the tonic extensor convulsion was considered as criterion of the anti-convulsive effect. The test-substance had been orally administered one hour before the electroshock. The inhibition of pentetrazole convulsion was determined on white mice by the modified method of Banziger and Hane [Banziger, R., Hane, L.D. Arch. Int. Pharmacodyn. 167, 245-249; (1967)]. I." stands for "therapeutic index."
# white mice [6] = experiment: inhibition of pentetrazole convulsion (modified Banziger and Hane); assay type: in vivo; conditions: for ED50: Mus musculus, oral; for Inhibition of pentetrazole convulsion Th. I.: therapeutic index
# Procedure: as §3
# [7] = oral, 20 ml/kg, both sexes 18-24 g, 4 days observation
# [8] = oral, 1 hour before i.p. 0.4 ml 0.5% acetic acid
SMILES,ED50 (white mice [1]; po) [mg/kg],Analgesic effect Therap.index (white mice [1]),ED50 (mice) [mg/kg],Potentiating of narcosis Th.I. (mice),"LD50 at 96 h [2, 7] [mg/kg]",ED50 (white mice [3]) [mg/kg],Inhibition of nicotine-lethality Therapeutic index (white mice [3]),ED50 (white mice [1]; [8]) [mg/kg],ED50 (white mice [4]) [mg/kg],Inhibition of motility Th.I. (white mice [4]),ED50 (white mice [5]) [mg/kg],Inhibition of MES Th. I. (white mice [5]),ED50 (white mice [6]) [mg/kg],Inhibition of pentetrazole convulsion Th. I. (white mice [6]),LD50 at 96 h ([2]; po) [mg/kg]
"CN(C)CCOC1(c2ccccc2)CC2CCC1(C)C2(C)C (racemic) [Example 15, (±)-2-(2'-dimethylaminoethoxy)-2-phenyl-1,7,7-trimethyl-bicyclo(2,2,1)heptane]",23,39.0,40,22.5,900,30,30.0,–,–,–,–,–,–,–,–
"CC(C)N(CCCOC1(Cc2ccccc2)CC2CCC1(C)C2(C)C)C(C)C (racemic) [Example 5, (±)-2-benzyl-2-(3'-diisopropylaminopropoxy)-1,7,7-trimethyl-bicyclo(2,2,1)heptane]",–,20.0,120,16.7,2000,–,–,100,190,10.5,380,5.3,140,14.3,–
"COc1ccc(C2(OCCCN(C)C)CC3CCC2(C)C3(C)C)cc1 (racemic) [Example 22, (±)-2-(p-methoxyphenyl)-2-(3'-dimethylaminopropoxy)-1,7,7-trimethyl-bicyclo(2,2,1)heptane]",–,13.8,80,12.5,1000,–,–,72,100,10.0,–,–,96,10.4,–
"CCN(CC)CCOC1(c2cccs2)CC2CCC1(C)C2(C)C (racemic) [Example 17, (±)-2-(2'-diethylaminoethoxy)-2-(2""-thienyl)-1,7,7-trimethyl-bicyclo(2,2,1)heptane]",50,19.6,–,–,980,50,–,–,–,–,–,–,60,16.3,–
"CN(C)CCCOC1(c2ccccc2)CC2CCC1(C)C2(C)C (racemic) [Example 14, (±)-2-(3'-dimethylaminopropoxy)-2-phenyl-1,7,7-trimethyl-bicyclo(2,2,1)heptane]",–,20.0,64,15.6,1000,–,–,50,38,26.3,–,–,–,–,–
"CCN(CC)CCCOC1(c2ccccc2)CC2CCC1(C)C2(C)C (racemic) [Example 16, (±)-2-(3-diethylaminopropoxy)-2-phenyl-1,7,7-trimethyl-bicyclo(2,2,1)heptane]",–,10.0,20,35.0,700,–,–,70,–,–,30,23.3,60,11.7,–
CCN(CC)CCOC1(Cc2ccc(Cl)cc2)CC2CCC1(C)C2(C)C (racemic) [Example 12],–,20.0,200,10.0,2000,–,–,100,–,–,72,27.7,110,18.2,–
"CC(C)N(CCOC1(Cc2ccccc2)CC2CCC1(C)C2(C)C)C(C)C (racemic) [Example 3, (±)-2-benzyl-2-(2'-diisopropylaminoethoxy)-1,7,7-trimethyl-bicyclo(2,2,1) heptane]",–,10.4,120,10.4,1250,–,–,120,–,–,–,–,–,–,–
"CC(COC1(c2ccc(Cl)cc2)CC2CCC1(C)C2(C)C)CN(C)C (single isomer, unassigned; (+)) [Example 13, (+)-2-[(3'-dimethylamino-2'-methyl)-propoxy]-2-(p-chloro-phenyl)-1,7,7-trimethyl-bicyclo(2,2,1)heptane]",–,10.0,–,–,–,–,–,200,170,11.8,140,14.3,140,14.3,2000
"CC(=O)Nc1ccc(O)cc1 [Paracetamole, N-(4-Hydroxyphenyl)-acetamide, reference compound]",–,–,–,–,–,–,–,180,–,–,–,–,–,–,–
"CCN(CC)CCCOC1(Cc2ccccc2)CC2CCC1(C)C2(C)C (racemic) [Example 6, (±)-2-benzyl-2-(3'-diethylaminopropoxy)-1,7,7-trimethyl-bicyclo(2,2,1)heptane]",–,40.0,80,25.0,2000,–,–,50,100,20.0,120,16.7,54,37.0,–
CC1(C)C2CCC1(C)C(Cc1ccccc1)(OCCCN1CCN(Cc3ccccc3)CC1)C2 (racemic) [Example 4],–,10.0,–,–,2000,–,–,200,–,–,–,–,–,–,–
"OC(CCN1CCCCC1)(c1ccccc1)C1CCCCC1 (stereo not drawn) [Trihexyphenidyl, α-Cyclohexyl-α-phenyl-1-piperidine-propanol, reference compound]",–,–,–,–,–,40,9.13,–,–,–,–,–,–,–,–
"CN1C(=O)OC(C)(C)C1=O [Trimethadion, 3,5,5-Trimethyl-2,4-oxazolidinedione, reference compound]",–,–,–,–,–,–,–,–,–,–,4.9,4.3,400,5.3,–
"CN(C)CCCOC1(Cc2ccc(Cl)cc2)CC2CCC1(C)C2(C)C (racemic) [Example 11, (±)-2-(p-chloro-benzyl)-2-(3'-dimethylaminopropoxy)-1,7,7-trimethyl-bicyclo(2,2,1)heptane]",–,20.0,130,11.5,1500,–,–,75,130,11.5,–,–,–,–,–
"CCN(CC)CCCOC1(c2cccs2)CC2CCC1(C)C2(C)C (racemic) [Example 19, (±)-2-(3'-diethylaminopropoxy)-2-(2""-thienyl)-1,7,7-trimethyl-bicyclo(2,2,1)heptane]",–,8.3,50,20.0,–,–,–,120,–,–,–,–,–,–,1000
"CN(C)CCCOC1(c2cccs2)CC2CCC1(C)C2(C)C (racemic) [Example 18, (±)-2-(3'-dimethylaminopropoxy)-2-(2""-thienyl)-1,7,7-trimethyl-bicyclo(2,2,1)heptane]",–,10.0,–,–,–,–,–,140,–,–,–,–,–,–,1400
